The source of these data is patent US11229618B2 (Amarin Pharmaceuticals Ireland Limited, priority 2012, dated 2022).

This test concerns fasting TG levels. Nature of the test: MARINE: fasting TG lowering and LDL-C. In kind it is in vivo, human. The following applies: for median percent reductions in TG from baseline, 4 g/day compared with 2 g/day: 12 weeks. The protocol: A multi-center, placebo-controlled randomized, double-blind, 12-week study with an open-label extension is performed to evaluate the efficacy and safety of AMR101 in patients with fasting triglyceride levels≥500 mg/dL. The primary objective of the study is to determine the efficacy of AMR101 2 g daily and 4 g daily, compared to placebo, in lowering fasting TG levels in patients with fasting TG levels≥500 mg/dL and ≤1500 mg/dL (≥5.65 mmol/L and ≤16.94 mmol/L).
The primary efficacy variable for the double-blind treatment period is percent change in TG from baseline to Week 12 endpoint. The secondary efficacy variables for the double-blind treatment period include the following: • Percent changes in total cholesterol (TC), high-density lipoprotein cholesterol (HDL-C), calculated low-density lipoprotein cholesterol (LDL-C), calculated non-high-density lipoprotein cholesterol (non-HDL-C), and very low-density lipoprotein cholesterol (VLDL-C) from baseline to Week 12 endpoint; • Percent change in very low-density lipoprotein TG from baseline to Week 12; • Percent changes in apolipoprotein A-I (apo A-I), apolipoprotein B (apo B), and apo A-I/apo B ratio from baseline to Week 12; • Percent changes in lipoprotein(a) from baseline to Week 12 (selected sites only); • Percent changes in LDL particle number and size, measured by nuclear magnetic resonance, from baseline to Week 12 (selected sites only); • Percent change in remnant-like particle cholesterol from baseline to Week 12 (selected sites only); • Percent change in oxidized LDL from baseline to Week 12 (selected sites only); • Changes in FPG and HbA1c from baseline to Week 12; • Change in insulin resistance, as assessed by the homeostasis model index insulin resistance, from baseline to Week 12; • Percent change in lipoprotein associated phospholipase A2 from baseline to Week 12 (selected sites only); • Change in intracellular adhesion molecule-1 from baseline to Week 12 (selected sites only); • Change in interleukin-6 from baseline to Week 12 (selected sites only); • Change in plasminogen activator inhibitor-1 from baseline to Week 12 (selected sites only); • Change in hsCRP from baseline to Week 12 (selected sites only); • Change in serum phospholipid EPA content from baseline to Week 12; • Change in red blood cell membrane EPA content from baseline to Week 12; and • Change in serum phospholipid and red blood cell membrane content in the following fatty acids from baseline to Week 12: docosapentaenoic acid, docosahexaenoic acid, arachidonic acid, palmitic acid, stearic acid, and oleic acid.
MARINE and ANCHOR were 12-week, phase 3, double-blind studies that randomized patients to IPE 4 g/day, 2 g/day, or placebo. […]

Regarding `CC/C=C\C/C=C\C/C=C\C/C=C\C/C=C\CCCC(=O)OCC` [IPE, all-cis eicosa-5,8,11,14,17-pentaenoic acid ethyl ester], the “effect on LDL-C” value is “without raising LDL-C” and the “median percent reductions in TG from baseline, 4 g/day compared with 2 g/day” value is reported as “higher with IPE 4 g/day than with 2 g/day”. Moreover, for the setting “listed as EPA”, the “median percent reductions in TG from baseline, 4 g/day compared with 2 g/day” value is listed as “higher for subjects administered about 4 grams of EPA per day”. Also, the “effect on TG levels” value (patients with very high TG levels) is “significantly reduced TG levels”.
